Positions of bridges follow the written chain, without caps; N, C: chain ends. Non-standard residues stand in square brackets, D forms with d. Residues, ends and D or L forms follow the SMILES beside them. *: point of attachment. hPhe(3-Cl-4-CF3) = N[C@@H](CCc1ccc(C(F)(F)F)c(Cl)c1)C(=O)O; hPhe(3-F,4-CF3) = N[C@@H](CCc1ccc(C(F)(F)F)c(F)c1)C(=O)O; NMePhe(4-Me) = CN[C@@H](Cc1ccc(C)cc1)C(=O)O; NMeNva(5,5-F2) = CN[C@@H](CCC(F)F)C(=O)O; NMeGly(cPent) = CN[C@H](C(=O)O)C1CCCC1; NMeCha = CN[C@@H](CC1CCCCC1)C(=O)O; cisHyp = O=C(O)[C@@H]1C[C@H](O)CN1; NEtLeu = CCN[C@@H](CC(C)C)C(=O)O; NMeChg = CN[C@H](C(=O)O)C1CCCCC1; NMeI = CC[C@H](C)[C@H](NC)C(=O)O; NMeT = CN[C@H](C(=O)O)[C@@H](C)O; Gly(cBu) = N[C@H](C(=O)O)C1CCC1; NMeD = CN[C@@H](CC(=O)O)C(=O)O; NMeL = CN[C@@H](CC(C)C)C(=O)O; NMePra = C#CC[C@H](NC)C(=O)O; NMeV = CN[C@H](C(=O)O)C(C)C; d(β3hA) = C[C@@H](N)CC(=O)O; NMeA = CN[C@@H](C)C(=O)O; Piperidide = C1CCN(*)CC1; Ac5c = NC1(C(=O)O)CCCC1; Aze = O=C(O)[C@@H]1CCN1; Sar = CNCC(=O)O
These compounds were tested on Human pancreatic cancer cell line AsPC-1 (assay: Measurement of AsPC-1 cell growth inhibition (AsPC-1 CGI)). Conditions: 96 h.
Type: cell-based
Outline: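 AsPC-1 cells in 15% FBS RPMI-1640 were exposed to test compound for 96 hours at 37° C, with CellTiter-Glo as endpoint.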
`CC[C@H](C)[C@@H]1NC(=O)[C@H](CC(C)C)N(C)C(=O)C[C@@H](C)NC(=O)[C@H](C(C)C)N(C)C(=O)C2(CCCC2)NC(=O)[C@@H]2CCCN2C(=O)[C@H](CCc2ccc(C(F)(F)F)c(Cl)c2)NC(=O)CN(C)C(=O)[C@H](CC2CCCCC2)N(C)C(=O)[C@@H]2CCN2C(=O)[C@H](C)N(C)C1=O` [Compound 488] (cyclo([Ac5c][NMeV][d(β3hA)][NMeL]I[NMeA][Aze][NMeCha][Sar][hPhe(3-Cl-4-CF3)]P)) gave an IC50 of 100 to 500 nM. In the case of `CC[C@H](C)[C@@H]1NC(=O)[C@H](CC(C)C)N(C)C(=O)C[C@@H](C(=O)N2CCCCC2)N(C)C(=O)[C@H](C(C)C)N(C)C(=O)C2(CCCC2)NC(=O)[C@@H]2CCCN2C(=O)[C@H](CCc2ccc(C(F)(F)F)c(Cl)c2)NC(=O)CN(C)C(=O)[C@H](CC2CCCCC2)N(C)C(=O)[C@@H]2CCN2C(=O)[C@H]([C@@H](C)O)N(C)C1=O` [Compound 496] ([NMeL]I[NMeT][Aze][NMeCha][Sar][hPhe(3-Cl-4-CF3)]P[Ac5c][NMeV][NMeD]-Piperidide; lactam N-11), the IC50 is reported as 100 to 500 nM. In the case of `CO[C@H](C)[C@@H]1NC(=O)[C@H](CC(C)C)N(C)C(=O)C[C@@H](C(=O)N2CCCCC2)N(C)C(=O)[C@H](C(C)C)N(C)C(=O)C2(CCCC2)NC(=O)[C@@H]2CCCN2C(=O)[C@H](CCc2ccc(C(F)(F)F)c(Cl)c2)NC(=O)CN(C)C(=O)[C@H](CC2CCCCC2)N(C)C(=O)[C@@H]2CCN2C(=O)[C@H](C)N(C)C1=O` [Compound 497] ([NMeL]T(Me)[NMeA][Aze][NMeCha][Sar][hPhe(3-Cl-4-CF3)]P[Ac5c][NMeV][NMeD]-Piperidide; lactam N-11), the IC50 is reported as 100 to 500 nM. `CC[C@H](C)[C@@H]1NC(=O)[C@H](CC(C)C)N(C)C(=O)C[C@@H](C(=O)N2CCCCC2)N(C)C(=O)[C@H](C2CCCCC2)N(C)C(=O)C2(CCCC2)NC(=O)[C@H](CCC(F)F)N(C)C(=O)[C@H](CCc2ccc(C(F)(F)F)c(Cl)c2)NC(=O)CN(C)C(=O)[C@H](CC2CCCCC2)N(C)C(=O)CN(C)C(=O)CN(C)C1=O` [Compound 523] ([NMeL]I[Sar][Sar][NMeCha][Sar][hPhe(3-Cl-4-CF3)][NMeNva(5,5-F2)][Ac5c][NMeChg][NMeD]-Piperidide; lactam N-11) was tested, and the IC50 was 100 to 500 nM. Work on `CC[C@H](C)[C@@H]1NC(=O)[C@H](CC(C)C)N(CC)C(=O)C[C@@H](C)NC(=O)[C@H](C2CCCC2)N(C)C(=O)C2(CCCC2)NC(=O)[C@@H]2CCCN2C(=O)[C@H](CCc2ccc(C(F)(F)F)c(Cl)c2)NC(=O)CN(C)C(=O)[C@H](Cc2ccc(C)cc2)N(C)C(=O)[C@@H]2CCN2C(=O)[C@H](C)N(C)C1=O` [Compound 531] (cyclo([Ac5c][NMeGly(cPent)][d(β3hA)][NEtLeu]I[NMeA][Aze][NMePhe(4-Me)][Sar][hPhe(3-Cl-4-CF3)]P)) yielded an IC50 of 20 to 50 nM. Compound `CC[C@H](C)[C@@H]1NC(=O)[C@H](CC(C)C)N(C)C(=O)C[C@@H](C(=O)N2CCCCC2)N(C)C(=O)[C@H](CC(C)C)N(C)C(=O)C2(CCCC2)NC(=O)[C@@H]2C[C@H](O)CN2C(=O)[C@H](CCc2ccc(C(F)(F)F)c(F)c2)NC(=O)CN(C)C(=O)[C@H](CC2CCCCC2)N(C)C(=O)CN(C)C(=O)CN(C)C1=O` [Compound 544, (3S,9S,18S,21S,25S,28S,34S,36S)-9-(cyclohexylmethyl)-3-[2-[3-fluoro-4-(trifluoromethyl)phenyl]ethyl]-36-hydroxy-21,28-diisobutyl-7,10,13,16,22,26,29-heptamethyl-18-[(1S)-1-methylpropyl]-25-(piperidine-1-carbonyl)spiro[1,4,7,10,13,16,19,22,26,29,32-undecazabicyclo[32.3.0]heptatriacontane-31,1′-cyclopentane]-2,5,8,11,14,17,20,23,27,30,33-undecone] ([NMeL]I[Sar][Sar][NMeCha][Sar][hPhe(3-F,4-CF3)][cisHyp][Ac5c][NMeL][NMeD]-Piperidide; lactam N-11) has an IC50 of 100 to 500 nM. Work on `CC[C@H](C)[C@@H]1NC(=O)[C@H](CC(C)C)N(C)C(=O)C[C@@H](C(=O)N2CCCCC2)N(C)C(=O)[C@H](C2CCCCC2)N(C)C(=O)C2(CCCC2)NC(=O)[C@@H]2CCCN2C(=O)[C@H](CCc2ccc(C(F)(F)F)c(Cl)c2)NC(=O)CN(C)C(=O)[C@H](CC2CCCCC2)N(C)C(=O)CN(C)C(=O)CN(C)C1=O` [Compound 558] ([NMeL]I[Sar][Sar][NMeCha][Sar][hPhe(3-Cl-4-CF3)]P[Ac5c][NMeChg][NMeD]-Piperidide; lactam N-11) yielded an IC50 of 20 to 50 nM. For `C#CC[C@H]1C(=O)N[C@@H]([C@@H](C)CC)C(=O)N(C)[C@@H](C)C(=O)N2CC[C@H]2C(=O)N(C)[C@@H](CC2CCCCC2)C(=O)N(C)CC(=O)N[C@@H](CCc2ccc(C(F)(F)F)c(Cl)c2)C(=O)N2CCC[C@H]2C(=O)NC2(CCCC2)C(=O)N(C)[C@@H](C(C)C)C(=O)N(C)[C@H](C(=O)N2CCCCC2)CC(=O)N1C` [Compound 559] ([NMePra]I[NMeA][Aze][NMeCha][Sar][hPhe(3-Cl-4-CF3)]P[Ac5c][NMeV][NMeD]-Piperidide; lactam N-11), the IC50 was 100 to 500 nM. Work on `CC[C@H](C)[C@@H]1NC(=O)[C@H](CC(C)C)N(C)C(=O)C[C@@H](C(=O)N2CCCCC2)N(C)C(=O)[C@H](C2CCCC2)N(C)C(=O)C2(CCCC2)NC(=O)[C@@H]2CCCN2C(=O)[C@H](CCc2ccc(C(F)(F)F)c(F)c2)NC(=O)CN(C)C(=O)[C@H](CC2CCCCC2)N(C)C(=O)[C@@H]2CCN2C(=O)[C@H](C)N(C)C1=O` [Compound 563] ([NMeL]I[NMeA][Aze][NMeCha][Sar][hPhe(3-F,4-CF3)]P[Ac5c][NMeGly(cPent)][NMeD]-Piperidide; lactam N-11) yielded an IC50 of 20 to 50 nM. Work on `CC[C@H](C)[C@@H]1NC(=O)[C@H](CC(C)C)N(C)C(=O)C[C@@H](C(=O)N(C)C)NC(=O)[C@H]([C@@H](C)CC)N(C)C(=O)C2(CCCC2)NC(=O)[C@@H]2CCCN2C(=O)[C@H](CCc2ccc(C(F)(F)F)c(Cl)c2)NC(=O)CN(C)C(=O)[C@H](CC2CCCCC2)N(C)C(=O)[C@@H]2CCN2C(=O)[C@H](C)N(C)C1=O` [Compound 568] ([NMeL]I[NMeA][Aze][NMeCha][Sar][hPhe(3-Cl-4-CF3)]P[Ac5c][NMeI]D-NMe2; lactam N-11) yielded an IC50 of 100 to 500 nM. For `CC[C@H](C)[C@@H]1NC(=O)[C@H](CC2CCCCC2)N(C)C(=O)C[C@@H](C(=O)N2CCCCC2)N(C)C(=O)[C@H](C(C)C)N(C)C(=O)C2(CCCC2)NC(=O)[C@@H]2CCCN2C(=O)[C@H](CCc2ccc(C(F)(F)F)c(Cl)c2)NC(=O)CN(C)C(=O)[C@H](CC2CCCCC2)N(C)C(=O)[C@@H]2CCN2C(=O)[C@H](C)N(C)C1=O` [Compound 572] ([NMeCha]I[NMeA][Aze][NMeCha][Sar][hPhe(3-Cl-4-CF3)]P[Ac5c][NMeV][NMeD]-Piperidide; lactam N-11), the IC50 was 100 to 500 nM. For `CC(C)C[C@H]1C(=O)N[C@@H](C2CCC2)C(=O)N(C)[C@@H](C)C(=O)N2CC[C@H]2C(=O)N(C)[C@@H](CC2CCCCC2)C(=O)N(C)CC(=O)N[C@@H](CCc2ccc(C(F)(F)F)c(Cl)c2)C(=O)N2CCC[C@H]2C(=O)NC2(CCCC2)C(=O)N(C)[C@@H](C(C)C)C(=O)N[C@H](C)CC(=O)N1C` [Compound 580] (cyclo([Ac5c][NMeV][d(β3hA)][NMeL][Gly(cBu)][NMeA][Aze][NMeCha][Sar][hPhe(3-Cl-4-CF3)]P)), the IC50 was 100 to 500 nM.
